US20100284927A1, “USE OF MRI CONTRAST AGENTS FOR EVALUATING THE TREATMENT OF TUMORS” (University of Utah Research Foundation, priority 2007, published 2010)
Values joined by “and” are separate entries in the source; they are usually repeats but may differ in a detail not shown here. Identical values can stand only once. Marks after values point to notes of the source that are not given here.

Experiments:
[1] = tested on: human VEGF-A; conditions: in vivo; cited from earlier work
[2] = in mice body; cited from earlier work
[3] = tested on: HT-29 human colon carcinoma; assay: Effect of Avastin on growth of HT-29 colon cancer; format: in vivo, NCr-nu/nu nude mice; conditions: 36 h after Avastin-treatment, 200 μg/mouse i.p.; pre-treatment 508±185 mm^3
Protocol: The study protocol was approved by the local ethics committee for animal care and use. HT-29 human colon carcinoma cell line was purchased from American Type Culture Collection (ATCC, Manassas, Va.) with ATCC number HTB-38™. HT-29 cell line was cultured using ATCC complete growth medium (5 McCoy's Medium with 10% fetal bovine serum).
Athymic female NCr-nu/nu nude mice at 4 weeks were purchased form National Cancer Institute at Frederick, M D. Concentrated HT-29 cells in complete medium was mixed with Matrigel basement membrane matrix (BD Biosciences, San Jose, Calif.) at 1:1 ratio. 2×10^6 cells in 100 μl mixture were implanted s.c. in the flank of 12 mice weighing about 23 g.
Animals were selected for study when the tumors reached approximately 1 cm in diameter (about 3 weeks after tumor cells inoculation) and were randomly divided into two groups (each group n=6, group1 and group2). One group (group1) underwent DCE-MRI with macromolecular contrast agent-GDCC40K (MW: 40 KDa), and another group (group2) underwent DCE-MRI with small molecular weight contrast agent—Ominiscan (MW: 574 Da). Before treatment, Ominiscan was injected at 0.1 mmol-Gd/kg for […], GDCC40OK (40K Da) was injected at 0.05 mmol-Gd/kg for […]. […]
In addition, tumor size of all animals was determined using a caliper during the study.

[4] = tested on: MDA-MB-231 human breast cancer tumors; assay: Contrast enhanced 2D spin echo MRI, SI enhancement of tumors (section I); format: in vivo, athymic nude mice; conditions: 2D SE images; for SI enhancement ratio (SI post/SI pre) of the whole untreated tumor: Gd-(DTPA-BMA) 0.1 mmol-Gd/kg, GDCC-40 0.05 mmol-Gd/kg i.v.; for residual tumor enhancement ratio (SI post/SI pre): residual tumor after treatment, Gd-(DTPA-BMA) 0.1, GDCC-40 0.05 mmol-Gd/kg i.v.
[5] = tested on: HT-29 human colon carcinoma; assay: DCE-MRI assessment of anti-angiogenic effect of Avastin, K^trans and fPV of tumor rim; format: in vivo, NCr-nu/nu nude mice; conditions: for K^trans 36 h after treatment / fpv 36 h after treatment: 36 h after initiating Avastin 200 μg/mouse i.p.; for K^trans 7 days after treatment / fpv 7 days after treatment: 7 days after initiating Avastin 200 μg/mouse i.p. every 2 days; for K^trans pretreatment / fpv pretreatment: before Avastin, GDCC40K 0.05, Omniscan 0.1 mmol-Gd/kg
[6] = tested on: MDA-MB-231 human breast cancer tumors; assay: DCE-MRI with linear compartmental model, PV and FLR, SI time curves (section I); format: in vivo, athymic nude mice; conditions: for FLR, tumor center / FLR, tumor rim / FLR, whole tumor: fractional leakage rate; for FLR, tumor center / FLR, tumor rim / FLR, whole tumor / PV, tumor center / PV, tumor rim / PV, whole tumor: GDCC-40 0.05, Gd-DTPA-BMA 0.1 mmol-Gd/kg; for PV, tumor center / PV, tumor rim / PV, whole tumor: plasma volume; for PV values (range over tumor regions, Table 5) / estimated FLR values (range over tumor regions, Table 5): tumor center to tumor rim
[7] = tested on: MDA-MB-231 human breast cancer tumors; assay: DCE-MRI with linear compartmental model, PV, FLR and PS (section II); format: in vivo, athymic nude mice
[8] = tested on: MDA-MB-231 human breast cancer tumors; assay: 2D spin echo MRI with various doses of GDCC-40 (section II); format: in vivo, athymic nude mice; conditions: 2D SE images
[9] = reference (36); cited from earlier work

human VEGF-A, sequence (P15692 207-311 limits assumed): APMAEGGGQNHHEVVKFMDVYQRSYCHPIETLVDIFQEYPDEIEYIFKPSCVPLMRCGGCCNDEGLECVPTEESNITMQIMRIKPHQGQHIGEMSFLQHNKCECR

Row | Compound | SI enhancement ratio (SI post/SI pre) of the whole untreated tumor [4] | residual tumor enhancement ratio (SI post/SI pre) [4] | K^trans 36 h after treatment [5] | fpv 36 h after treatment [5] | K^trans 7 days after treatment [5] | fpv 7 days after treatment [5] | K^trans pretreatment [5] | fpv pretreatment [5] | time at which SI of muscle reached plateau ([6]; DCE-MRI time course) | time at which SI of tumor rim reached a maximum ([6]; DCE-MRI time course) | FLR, tumor center [6] | FLR, tumor rim [6] | FLR, whole tumor [6] | PV, tumor center [6] | PV, tumor rim [6] | PV, whole tumor [6] | PV values (range over tumor regions, Table 5) [6] | estimated FLR values (range over tumor regions, Table 5) [6] [h⁻¹] | other results
1 | Bevacizumab [Avastin] | – | – | – | – | – | – | – | – | – | – | – | – | – | – | – | – | – | – | dose enough to completely inhibit human VEGF-A [1]: 50-100 μg/mouse; terminal half-life [2]: 1-2 weeks; tumor size [3]: 510±171 mm^3
2 | CNC(=O)CN(CCN(CCN(CC(=O)[O-])CC(=O)NC)CC(=O)[O-])CC(=O)[O-].[Gd+3] [Gd-DTPA-BMA, gadodiamide, reference compound] | 1.60±0.19 | 1.66±0.10 | 0.066 ± 0.047 | 0.062 ± 0.039 | 0.069 ± 0.055 | 0.137 ± 0.034 | 0.07 ± 0.013 | 0.102 ± 0.047 | about 1.5 min | ~7 min | 9.93 ± 3.19 h⁻¹ | 28.42 ± 4.36 h⁻¹ | 20.86 ± 1.18 h⁻¹ | 0.098 ± 0.019 | 0.190 ± 0.018 | 0.138 ± 0.020 | 0.098 to 0.190 | 14.93 to 28.42 | time at which tumor rim/muscle SI ratio reached plateau ([6]; DCE-MRI time course): ≤ 2 min
3 | (Gd-DTPA)-cystamine copolymers [GDCC-40] | 1.65±0.21 | 1.51±0.19 | 0.008 ± 0.004 | 0.008 ± 0.005 | 0.028 ± 0.029 | 0.030 ± 0.022 | 0.014 ± 0.002 | 0.028 ± 0.005 | about 1.5 min | about 12 min | 3.24 ± 1.10* 1/hr | 5.21 ± 0.88* 1/hr | 4.57 ± 0.91* 1/hr | 0.058 ± 0.046 | 0.082 ± 0.038 | 0.076 ± 0.032 | 0.058 to 0.082 | 3.24 to 5.21 | FLR, untreated tumor ([7]; 0.01 mmol-Gd/kg): 6.05 and 6.05 ± 3.58; PS, untreated tumor ([7]; 0.01 mmol-Gd/kg): 0.997 ± 0.613; PV, untreated tumor ([7]; 0.01 mmol-Gd/kg): 0.124 and 0.124 ± 0.045; FLR, untreated tumor ([7]; 0.025 mmol-Gd/kg): 5.06 and 5.06 ± 1.84; PS, untreated tumor ([7]; 0.025 mmol-Gd/kg): 0.611 ± 0.351; PV, untreated tumor ([7]; 0.025 mmol-Gd/kg): 0.123 and 0.123 ± 0.059; FLR, untreated tumor ([7]; 0.05 mmol-Gd/kg): 3.95 ± 0.81; PS, untreated tumor ([7]; 0.05 mmol-Gd/kg): 0.517 ± 0.216; PV, untreated tumor ([7]; 0.05 mmol-Gd/kg): 0.103 ± 0.043; ratio of SI at the tumor rim to SI of the muscle ([6]; at 15 min): more than 3; time after injection to reach contrast (SI of tumor rim to SI of muscle) similar to Gd-DTPA-BMA ([6]; mouse, in vivo): about 4 min; untreated tumor enhancement ([8]; 0.01 mmol-Gd/kg): 0.14±0.03; untreated tumor enhancement ([8]; 0.025 mmol-Gd/kg): 0.26±0.05; untreated tumor enhancement ([8]; 0.05 mmol-Gd/kg): 0.62±0.19
4 | Albumin-Gd-DTPA | – | – | – | – | – | – | – | – | – | – | – | – | – | – | – | – | – | – | FLR values estimated using Albumin-Gd-DTPA [9]: 1.27 to 8.10 h⁻¹; PV values estimated using Albumin-Gd-DTPA [9]: 0.023 to 0.065
